Assay results from patent US20240374585A1, “EPITHELIAL SODIUM CHANNEL (ENAC) INHIBITOR CONJUGATES AND METHODS FOR USE THEREOF” (Lung Therapeutics, Inc., priority 2021, published 2024).
Where two headings read alike, the source gives them in different places.

Molecular target: T1, ENaC (Homo sapiens, UniProt P37088+P51168+P51170)
T1 construct: Primary NHBE cells were isolated from bronchi of normal healthy patients; endogenous in cells; host or cells: primary normal human bronchial epithelial (NHBE) cells, differentiated at air-liquid interface
T1 sequence (P37088 1-669): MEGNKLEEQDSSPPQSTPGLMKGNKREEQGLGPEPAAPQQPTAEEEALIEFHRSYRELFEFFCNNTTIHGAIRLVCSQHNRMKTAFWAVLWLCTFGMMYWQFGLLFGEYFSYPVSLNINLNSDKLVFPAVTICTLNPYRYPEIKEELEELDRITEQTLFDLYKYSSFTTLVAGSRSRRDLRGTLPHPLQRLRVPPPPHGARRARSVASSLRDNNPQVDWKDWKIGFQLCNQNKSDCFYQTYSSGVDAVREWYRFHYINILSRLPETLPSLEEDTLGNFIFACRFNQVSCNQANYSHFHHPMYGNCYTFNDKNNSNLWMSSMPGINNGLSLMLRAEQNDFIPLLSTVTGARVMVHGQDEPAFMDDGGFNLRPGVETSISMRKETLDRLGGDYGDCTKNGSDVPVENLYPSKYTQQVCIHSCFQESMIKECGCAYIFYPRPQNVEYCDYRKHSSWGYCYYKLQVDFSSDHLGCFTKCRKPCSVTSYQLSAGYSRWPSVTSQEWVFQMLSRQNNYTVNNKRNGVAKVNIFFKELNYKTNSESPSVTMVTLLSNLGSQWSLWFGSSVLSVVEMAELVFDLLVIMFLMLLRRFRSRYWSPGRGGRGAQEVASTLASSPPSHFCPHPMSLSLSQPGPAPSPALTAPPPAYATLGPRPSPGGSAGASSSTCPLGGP
T1 sequence (P51168 1-640): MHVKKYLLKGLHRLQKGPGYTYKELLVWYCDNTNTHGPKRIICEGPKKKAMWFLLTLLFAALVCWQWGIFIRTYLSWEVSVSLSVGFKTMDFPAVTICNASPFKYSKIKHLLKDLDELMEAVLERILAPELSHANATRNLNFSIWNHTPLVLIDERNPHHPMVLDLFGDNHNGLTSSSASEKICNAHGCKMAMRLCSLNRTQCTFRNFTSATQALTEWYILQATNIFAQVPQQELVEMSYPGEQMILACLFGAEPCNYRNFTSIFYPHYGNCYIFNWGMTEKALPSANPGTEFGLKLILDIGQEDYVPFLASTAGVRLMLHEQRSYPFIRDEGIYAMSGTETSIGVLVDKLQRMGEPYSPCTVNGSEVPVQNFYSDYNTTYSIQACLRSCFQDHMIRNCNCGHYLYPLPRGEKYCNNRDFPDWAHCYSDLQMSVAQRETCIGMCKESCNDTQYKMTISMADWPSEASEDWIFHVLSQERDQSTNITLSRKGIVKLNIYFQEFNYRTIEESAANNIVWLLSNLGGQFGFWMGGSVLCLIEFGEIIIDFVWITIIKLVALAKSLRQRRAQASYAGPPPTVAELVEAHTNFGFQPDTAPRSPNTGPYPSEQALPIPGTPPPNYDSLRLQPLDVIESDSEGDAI
T1 sequence (P51170 1-649): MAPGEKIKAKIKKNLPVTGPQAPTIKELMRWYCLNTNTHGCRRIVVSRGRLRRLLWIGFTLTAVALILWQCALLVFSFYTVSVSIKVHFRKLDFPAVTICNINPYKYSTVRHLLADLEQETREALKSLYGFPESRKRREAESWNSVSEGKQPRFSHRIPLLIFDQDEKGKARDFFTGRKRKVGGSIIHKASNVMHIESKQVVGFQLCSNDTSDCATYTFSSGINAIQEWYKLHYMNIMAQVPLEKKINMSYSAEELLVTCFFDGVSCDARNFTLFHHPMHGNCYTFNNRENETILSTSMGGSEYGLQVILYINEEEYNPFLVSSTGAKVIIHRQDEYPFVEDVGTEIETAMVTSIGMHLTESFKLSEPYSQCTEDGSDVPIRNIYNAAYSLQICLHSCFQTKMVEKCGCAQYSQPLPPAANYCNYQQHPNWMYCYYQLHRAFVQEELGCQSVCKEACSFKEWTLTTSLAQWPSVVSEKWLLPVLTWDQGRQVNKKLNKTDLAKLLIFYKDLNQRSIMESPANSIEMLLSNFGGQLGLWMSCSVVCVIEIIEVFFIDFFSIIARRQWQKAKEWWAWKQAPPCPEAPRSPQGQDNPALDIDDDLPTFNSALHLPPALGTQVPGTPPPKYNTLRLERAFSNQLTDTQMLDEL
Assay: ENaC inhibition in NHBE cell monolayers, Ussing epithelial voltage clamp (short circuit current)
Type: cell-based
Method: The objective of this study was to measure the ability of the illustrative conjugates to modulate ion transport function of ENAC in normal human bronchial epithelial (NHBE) cell monolayers. Sodium transport function of ENAC expressed in NHBE monolayers was evaluated using an Ussing epithelial voltage clamp apparatus. See, Hirsh et al., J. Pharmacol. Exp. Ther. 2008; 325:77-88, hereby incorporated by reference in its entirety.
Primary NHBE cells were isolated from bronchi of normal healthy patients, expanded in Lonza media (BEGM™ BulletKit™), and plated on Snapwell™ filters to form an epithelium. Cells on Snapwell™ inserts were grown for at least 21 days in Vertex Differentiation media and exposed to an air-liquid interface to promote differentiation. At least one day before the assay, mucous overlaying the apical surface was removed from the inserts by incubating the apical surface for about 30 minutes with ≥200 μL of differentiation media followed by aspiration of the mucous film and media.
The NHBE cell monolayers grown on Snapwell™ filter inserts were transferred to Physiologic Instruments Ussing recording chambers (Physiologic Instruments, Inc., San Diego, CA) and superfused with HB-PS. One or more 6-channel or 8-channel Physiologic Instruments VCC MC6 or VCC MC8 epithelial voltage clamps were used in combination to record short circuit current (ISC) from up to 24 inserts simultaneously. Air was used to operate the bubble lifts to rapidly circulate solutions in each Ussing chamber half and to aerate the monolayers.
Inserts were voltage clamped at 0 m V to record the ISC. Bumetanide (20 μM) was added to the basolateral side of all inserts. Test conjugates prepared as DMSO (Sigma-Aldrich) stocks were added cumulatively and sequentially to the apical Ussing chamber halves with at least 3 minutes between each addition.
Time and volume matched additions of DMSO to the basolateral side of the test conjugate treated inserts and both sides of the vehicle treated inserts was made to maintain osmotic balance across the epithelia. Transepithelial resistance was monitored with small voltage steps. The assay was performed at 35±2° C.
ENaC current at each test conjugate concentration was calculated as the peak current change produced by each test conjugate treated insert minus the mean current change produced by the corresponding DMSO additions to time-matched vehicle controls inserts. Cumulative difference data was fit to a Hill equation of the form: […]
Where IEnaC is the ISC peak difference current measured at each test conjugate concentration [Test].

| SMILES | IC50 (NHBE cell monolayers, Ussing chamber, apical addition, 35±2° C., read-out: IC50 for the ENaC inhibition) | IC50 |
| --- | --- | --- |
| CC(=O)N[C@@H](Cc1cn(CCCCNC(N)=NC(=O)c2nc(Cl)c(N)nc2N)nn1)C(=O)NCCCCCC(=O)N[C@H](C(=O)N[C@@H](CO)C(=O)N[C@@H](CCCCN)C(=O)N[C@@H](CCCNC(=N)N)C(=O)N[C@@H](CCCNC(=N)N)C(N)=O)C(C)C [Conjugate 9, Ac-(AmilCC2-Pgy)-Ahx-VSKRR-NH2] | 100 nM |  |
| CC(=O)N[C@@H](Cc1cn(CCCCNC(N)=NC(=O)c2nc(Cl)c(N)nc2N)nn1)C(=O)NCCCCCC(=O)N[C@@H](C)C(=O)N[C@@H](CO)C(=O)N[C@@H](Cc1c[nH]cn1)C(=O)N[C@@H](CC(C)C)C(=O)N[C@@H](CCCNC(=N)N)C(=O)N[C@@H](CCCCN)C(=O)N[C@@H](CC(C)C)C(=O)N[C@@H](CCCNC(=N)N)C(=O)N[C@@H](CCCCN)C(=O)N[C@@H](CCCNC(=N)N)C(=O)N[C@@H](CC(C)C)C(=O)N[C@@H](CC(C)C)C(N)=O [Conjugate 8] |  | 60 nM |
